Read-outs that look alike come from different tables or passages of the source.
Assays:
[1] = target: biotinylated human Gal-3 (hGal-3) (Homo sapiens, UniProt P17931); assay: Competitive binding assay: biotinylated hGal-3 binding to microplate-adsorbed asialofetuin (ASF), spectrophotometric
In short: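 Competitive binding of biotinylated hGal-3 to plate-adsorbed asialofetuin was measured with serially diluted compounds over 3 h at 4° C. Bound protein was detected with streptavidin-peroxidase and ABTS substrate by absorbance. IC50 values are means of several measurements.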

human Gal-1 (hGal-1) = human Gal-1 (hGal-1) (Homo sapiens, UniProt P09382); assay: Competitive binding assay: biotinylated hGal-1 binding to microplate-adsorbed asialofetuin (ASF), spectrophotometric; settings: hGal-1 binding to asialofetuin; Table 15; R and S epimers of selected Examples also listed; read-out: IC50 (Galectin-1 inhibition)
Sequence of human Gal-1 (hGal-1) (P09382 whole entry): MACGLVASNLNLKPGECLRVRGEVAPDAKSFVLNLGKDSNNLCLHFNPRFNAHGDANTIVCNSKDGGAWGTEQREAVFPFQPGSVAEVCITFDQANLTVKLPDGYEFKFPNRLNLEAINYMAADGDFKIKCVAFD
In short: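 Biotinylated hGal-1 (300-1000 ng/mL) incubated with compound on asialofetuin-coated plates 3 hours at 4 °C, washed, then streptavidin-peroxidase (80 ng/mL) 1 hour at 4 °C. ABTS substrate read spectrophotometrically; IC50 reported as mean of several measurements.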

[2] = Table 12, hGal-3, read-out: IC50 (Gal-3 inhibition)
[3] = Gal-3 inhibition, Table 5, read-out: IC50
[4] = Table 10, hGal-3, read-out: IC50 (Gal-3 inhibition)

Sequence of biotinylated human Gal-3 (hGal-3) (P17931 whole entry): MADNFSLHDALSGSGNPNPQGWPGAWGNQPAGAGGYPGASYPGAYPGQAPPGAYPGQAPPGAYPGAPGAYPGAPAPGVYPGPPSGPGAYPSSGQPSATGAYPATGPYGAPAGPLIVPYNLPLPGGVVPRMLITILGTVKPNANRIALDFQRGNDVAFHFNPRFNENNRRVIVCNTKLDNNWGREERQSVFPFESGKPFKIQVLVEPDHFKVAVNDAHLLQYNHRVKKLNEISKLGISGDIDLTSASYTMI

IC50 ([1]; Gal-3 inhibition, Table 14, read-out: IC50) [µM]	IC50 (human Gal-1 (hGal-1)) [µM]	IC50 [1, 2] [µM]	IC50 [1, 3] [µM]	IC50 [1, 4] [µM]	SMILES
	0.03			0.02	CCN(C(=O)[C@@H](S[C@@H]1O[C@H](CO)[C@H](O)[C@H](n2cc(-c3cc(F)c(F)c(F)c3)nn2)[C@H]1OC)C1(O)CCC(F)(F)CC1)C1CC1 [Example 2.44.238S.I.]
	0.65	0.18			CO[C@@H]1[C@@H](n2cc(-c3cc(F)c(F)c(F)c3)nn2)[C@@H](O)[C@@H](CO)O[C@H]1SC(C(=O)N(C)CC(F)(F)F)C1(O)CCC(F)(F)CC1 (stereo partly drawn) [Example 2.44.241.I., 2-(4,4-Difluoro-1-hydroxycyclohexyl)-2-(((2S,3R,4S,5R,6R)-5-hydroxy-6-(hydroxymethyl)-3-methoxy-4-(4-(3,4,5-trifluorophenyl)-1H-1,2,3-triazol-1-yl)tetrahydro-2H-pyran-2-yl)thio)-N-methyl-N-(2,2,2-trifluoroethyl)acetamide]
	0.11	0.08			CO[C@@H]1[C@@H](n2cc(-c3cc(F)c(F)c(F)c3)nn2)[C@@H](O)[C@@H](CO)O[C@H]1SC(C(=O)N(C)C(C)C)C1(O)CCC(F)(F)CC1 (stereo partly drawn) [Example 2.44.242.I., 2-(4,4-Difluoro-1-hydroxycyclohexyl)-2-(((2S,3R,4S,5R,6R)-5-hydroxy-6-(hydroxymethyl)-3-methoxy-4-(4-(3,4,5-trifluorophenyl)-1H-1,2,3-triazol-1-yl)tetrahydro-2H-pyran-2-yl)thio)-N-isopropyl-N-methylacetamide]
	0.17	0.11			CO[C@@H]1[C@@H](n2cc(-c3cc(F)c(F)c(F)c3)nn2)[C@@H](O)[C@@H](CO)O[C@H]1SC(C(=O)N(C)C1COC1)C1(O)CCC(F)(F)CC1 (stereo partly drawn) [Example 2.44.243.I., 2-(4,4-Difluoro-1-hydroxycyclohexyl)-2-(((2S,3R,4S,5R,6R)-5-hydroxy-6-(hydroxymethyl)-3-methoxy-4-(4-(3,4,5-trifluorophenyl)-1H-1,2,3-triazol-1-yl)tetrahydro-2H-pyran-2-yl)thio)-N-methyl-N-(oxetan-3-yl)acetamide]
	0.03	0.05			CO[C@@H]1[C@@H](n2cc(-c3cc(F)c(F)c(F)c3)nn2)[C@@H](O)[C@@H](CO)O[C@H]1SC(C(=O)N(C)C12CC(C1)C2)C1(O)CCC(F)(F)CC1 (stereo partly drawn) [Example 2.44.247.I., N-(Bicyclo[1.1.1]pentan-1-yl)-2-(4,4-difluoro-1-hydroxycyclohexyl)-2-(((2S,3R,4S,5R,6R)-5-hydroxy-6-(hydroxymethyl)-3-methoxy-4-(4-(3,4,5-trifluorophenyl)-1H-1,2,3-triazol-1-yl)tetrahydro-2H-pyran-2-yl)thio)-N-methylacetamide]
	0.73	0.49			CNC(=O)C(S[C@@H]1O[C@H](CO)[C@H](O)[C@H](n2cc(-c3cc(F)c(F)c(F)c3)nn2)[C@H]1OC)C1(O)CCC(F)(F)CC1 (stereo partly drawn) [Example 2.44.248.I., 2-(4,4-Difluoro-1-hydroxycyclohexyl)-2-(((2S,3R,4S,5R,6R)-5-hydroxy-6-(hydroxymethyl)-3-methoxy-4-(4-(3,4,5-trifluorophenyl)-1H-1,2,3-triazol-1-yl)tetrahydro-2H-pyran-2-yl)thio)-N-methylacetamide]

The remaining lines, values behind:

SMILES	IC50 ([1]; Gal-3 inhibition, Table 14, read-out: IC50) [µM]	IC50 (human Gal-1 (hGal-1)) [µM]	IC50 [1, 2] [µM]	IC50 [1, 3] [µM]	IC50 [1, 4] [µM]
CCO[C@@H]1[C@@H](n2cc(-c3cc(F)c(F)c(F)c3)nn2)[C@@H](O)[C@@H](CO)O[C@H]1SC(C(=O)N1CCC(F)(F)CC1)C1(O)CCC(F)(F)CC1 (stereo partly drawn) [Example 2.44.226.II., 2-(4,4-Difluoro-1-hydroxycyclohexyl)-1-(4,4-difluoropiperidin-1-yl)-2-(((2S,3R,4S,5R,6R)-3-ethoxy-5-hydroxy-6-(hydroxymethyl)-4-(4-(3,4,5-trifluorophenyl)-1H-1,2,3-triazol-1-yl)tetrahydro-2H-pyran-2-yl)thio)ethan-1-one]	0.1	0.1			
CO[C@@H]1[C@@H](n2cc(-c3cc(F)c(F)c(F)c3)nn2)[C@@H](O)[C@@H](CO)O[C@H]1S[C@@H](C(=O)N1CCC(F)(F)CC1)C1(O)CCC(F)(F)CC1 [Example 2.44.226R.I., (R)-2-(4,4-difluoro-1-hydroxycyclohexyl)-1-(4,4-difluoropiperidin-1-yl)-2-(((2S,3R,4S,5R,6R)-5-hydroxy-6-(hydroxymethyl)-3-methoxy-4-(4-(3,4,5-trifluorophenyl)-1H-1,2,3-triazol-1-yl)tetrahydro-2H-pyran-2-yl)thio)ethan-1-one]		5.73	0.89		
CO[C@@H]1[C@@H](n2cc(-c3cc(F)c(F)c(F)c3)nn2)[C@@H](O)[C@@H](CO)O[C@H]1S[C@H](C(=O)N1CCC(F)(F)CC1)C1(O)CCC(F)(F)CC1 [Example 2.44.226S.I., (S)-2-(4,4-difluoro-1-hydroxycyclohexyl)-1-(4,4-difluoropiperidin-1-yl)-2-(((2S,3R,4S,5R,6R)-5-hydroxy-6-(hydroxymethyl)-3-methoxy-4-(4-(3,4,5-trifluorophenyl)-1H-1,2,3-triazol-1-yl)tetrahydro-2H-pyran-2-yl)thio)ethan-1-one]		0.07	0.05		
O=C([C@H](S[C@@H]1O[C@H](CO)[C@H](O)[C@H](n2cc(-c3cc(F)c(F)c(F)c3)nn2)[C@H]1O)C1(O)CCC(F)(F)CC1)N1CC(F)(F)C1 [Example 2.44.227R., (R)-2-(4,4-Difluoro-1-hydroxycyclohexyl)-1-(3,3-difluoroazetidin-1-yl)-2-(((2S,3R,4S,5R,6R)-3,5-dihydroxy-6-(hydroxymethyl)-4-(4-(3,4,5-trifluorophenyl)-1H-1,2,3-triazol-1-yl)tetrahydro-2H-pyran-2-yl)thio)ethan-1-one]		5.13		1.05	
O=C([C@@H](S[C@@H]1O[C@H](CO)[C@H](O)[C@H](n2cc(-c3cc(F)c(F)c(F)c3)nn2)[C@H]1O)C1(O)CCC(F)(F)CC1)N1CC(F)(F)C1 [Example 2.44.227S., (S)-2-(4,4-Difluoro-1-hydroxycyclohexyl)-1-(3,3-difluoroazetidin-1-yl)-2-(((2S,3R,4S,5R,6R)-3,5-dihydroxy-6-(hydroxymethyl)-4-(4-(3,4,5-trifluorophenyl)-1H-1,2,3-triazol-1-yl)tetrahydro-2H-pyran-2-yl)thio)ethan-1-one]		0.23		0.1	
CCN(C(=O)[C@H](S[C@@H]1O[C@H](CO)[C@H](O)[C@H](n2cc(-c3cc(F)c(F)c(F)c3)nn2)[C@H]1OC)C1(O)CCC(F)(F)CC1)C1CC1 [Example 2.44.238R.I.]		> 100			1
CCN(CC1CC1)C(=O)C(S[C@@H]1O[C@H](CO)[C@H](O)[C@H](n2cc(-c3cc(F)c(F)c(F)c3)nn2)[C@H]1OC)C1(O)CCC(F)(F)CC1 (some centres unmarked) [Example 2.44.239.I.]		0.02			0.04
CCN(Cc1ccccc1)C(=O)C(S[C@@H]1O[C@H](CO)[C@H](O)[C@H](n2cc(-c3cc(F)c(F)c(F)c3)nn2)[C@H]1OC)C1(O)CCC(F)(F)CC1 (some centres unmarked) [Example 2.44.240.I.]		0.28			0.04
CO[C@@H]1[C@@H](n2cc(-c3cc(F)c(F)c(F)c3)nn2)[C@@H](O)[C@@H](CO)O[C@H]1SC(C(=O)N1CCOCC1)C1(O)CCC(F)(F)CC1 (stereo partly drawn) [Example 2.44.244.I., 2-(4,4-Difluoro-1-hydroxycyclohexyl)-2-(((2S,3R,4S,5R,6R)-5-hydroxy-6-(hydroxymethyl)-3-methoxy-4-(4-(3,4,5-trifluorophenyl)-1H-1,2,3-triazol-1-yl)tetrahydro-2H-pyran-2-yl)thio)-1-morpholinoethan-1-one]		0.1	0.07		
CO[C@@H]1[C@@H](n2cc(-c3cc(F)c(F)c(F)c3)nn2)[C@@H](O)[C@@H](CO)O[C@H]1SC(C(=O)N1CCC(C)(C)CC1)C1(O)CCC(F)(F)CC1 (stereo partly drawn) [Example 2.44.245.I., 2-(4,4-Difluoro-1-hydroxycyclohexyl)-1-(4,4-dimethylpiperidin-1-yl)-2-(((2S,3R,4S,5R,6R)-5-hydroxy-6-(hydroxymethyl)-3-methoxy-4-(4-(3,4,5-trifluorophenyl)-1H-1,2,3-triazol-1-yl)tetrahydro-2H-pyran-2-yl)thio)ethan-1-one]		0.21	0.09		
CO[C@@H]1[C@@H](n2cc(-c3cc(F)c(F)c(F)c3)nn2)[C@@H](O)[C@@H](CO)O[C@H]1SC(C(=O)N(C)C1CCC(C)(C)CC1)C1(O)CCC(F)(F)CC1 (stereo partly drawn) [Example 2.44.246.I., 2-(4,4-Difluoro-1-hydroxycyclohexyl)-N-(4,4-dimethylcyclohexyl)-2-(((2S,3R,4S,5R,6R)-5-hydroxy-6-(hydroxymethyl)-3-methoxy-4-(4-(3,4,5-trifluorophenyl)-1H-1,2,3-triazol-1-yl)tetrahydro-2H-pyran-2-yl)thio)-N-methylacetamide]		1.2	0.32		
CO[C@@H]1[C@@H](n2cc(-c3cc(F)c(F)c(F)c3)nn2)[C@@H](O)[C@@H](CO)O[C@H]1SC(C(=O)NC1CCOCC1)C1(O)CCC(F)(F)CC1 (stereo partly drawn) [Example 2.44.249.I., 2-(4,4-Difluoro-1-hydroxycyclohexyl)-2-(((2S,3R,4S,5R,6R)-5-hydroxy-6-(hydroxymethyl)-3-methoxy-4-(4-(3,4,5-trifluorophenyl)-1H-1,2,3-triazol-1-yl)tetrahydro-2H-pyran-2-yl)thio)-N-(tetrahydro-2H-pyran-4-yl)acetamide]		0.36	0.08		
CCC(CC)NC(=O)C(S[C@@H]1O[C@H](CO)[C@H](O)[C@H](n2cc(-c3cc(F)c(F)c(F)c3)nn2)[C@H]1OC)C1(O)CCC(F)(F)CC1 (stereo partly drawn) [Example 2.44.250.I., 2-(4,4-Difluoro-1-hydroxycyclohexyl)-2-(((2S,3R,4S,5R,6R)-5-hydroxy-6-(hydroxymethyl)-3-methoxy-4-(4-(3,4,5-trifluorophenyl)-1H-1,2,3-triazol-1-yl)tetrahydro-2H-pyran-2-yl)thio)-N-(pentan-3-yl)acetamide]		0.27	0.05		

From US12410208B2, “(2-acetamidyl)thio-beta-D-galactopyranoside derivatives” (Idorsia Pharmaceuticals Ltd, priority 2020, dated 2025)
